Assay results taken from patent publication US5863950A, “HIV protease inhibitors” (Agouron Pharmaceuticals, Inc., priority 1994, dated 1999).
Values after ≈ are worked out from the molar mass of the structure shown. Like-named read-outs stand apart in the source and are kept apart here.

Legend:
HIV = assay: antiviral assay (enantiomer comparison, cell line not given); format: cell-based; conditions: enantiomers compared with each other
HIV-1 (MT-2 cells) = assay: Anti-HIV MTT assay, inhibition of HIV-induced cell killing, MT-2 cells; format: cell-based, HIV-1 isolates IIIB and/or RF; conditions: Human immunodeficiency virus 1, MT2, 144 h, read-out: Viral MT-2
Description: (§1) SRI has an established program for the primary antiviral analysis of compounds in microtiter assays which measure the ability of a selected compound to inhibit HIV-induced cell killing. This assay involves the conversion of the tetrazolium dye MTT to a colored formazan product by mitochondrial enzymes in metabolically active cells. This assay system is presently used at SRI to screen over 30,000 compounds per year. Briefly, the assay involves the infection of CEM or MT2 cells in round bottom 96-well plates. The compound of interest is added just prior to infection. Following 6 days of incubation at 37° C. the plates are stained with MTT. The results of the assay are quantitated spectrophotometrically on a Molecular Devices Vmax plate reader. The data is analyzed by linear regression utilizing an in-house software program to calculate antiviral activity. (IC25, IC50, IC95) and toxicity (TC25, TC50, TC95) as well as other values.
(§2) Primary antiviral assays are routinely performed in CEM or MT-2 cells.
(§3) Drugs will be solubilized in the appropriate vehicle such as distilled water or DMSO if necessary. Latex gloves, lab coats and masks are used during all phases of the handling process to prevent exposure to potentially harmful agents. The drug is prepared at the appropriate concentration and stored at -20° C. until used by the screening laboratory. The first dilution of each compound is made in a dilution tube with medium to yield a concentration two-fold that of the highest test concentration. Sterile titer tubes are then used to make serial one half-log dilutions of each compound. Following drug dilution, the diluted compound is added to the appropriate well of a 96-well microtiter plate. Up to 12 dilutions can be assayed conveniently in triplicate on a single plate with all appropriate controls including cell control, virus control, toxicity control, drug color control, medium control and plastic (background) control. When testing includes only six dilutions, two drugs can be assayed on a single microtiter plate. The drugs are added to the plate in a final volume of 100 microliters.
(§4) During the time the drug dilutions are prepared, cells are washed and counted. Viability is monitored by trypan blue dye exclusion and assays are not performed if the viability falls below 90%. Cells are maintained in an exponential growth phase and are split 1:2 on the day prior to assay to assure exponential growth rate.
(§5) For the primary screen, the cell lines utilized are CEM and MT-2. Unless otherwise indicated, the medium used is RPMI 1640 with 10% heat-inactivated fetal calf serum (FBS), glutamine and antibiotics.
(§6) Cells are propagated at 37° C. in an atmosphere of 5% CO2 in air. The virus employed for this work is HIV-1 isolates IIIB and/or RF, which are prepared by an acute infection process.
(§7) Briefly, virus-infected cells are pelleted on a daily basis beginning at three days post-infection until the virus has killed all of the cells in the culture. Reverse transcriptase activity and p24 ELISA are used to identify pools with the greatest amount of virus.
(§8) These 24-hour harvests are pooled, filtered and frozen at -90° C. Prior to use in the assay, the infectious pool of virus is titered on all available cell lines in order to determine the amount of virus required in the antiviral assay.
(§9) In general, pools produced by the acute infection method require the addition of one microliter of infectious virus per well resulting in the screening of drugs at a multiplicity of infection of 0.01. In this manner enough virus is prepared and frozen to complete over one thousand microtiter plates, allowing the testing of up to two thousand compounds from a single stock of infectious virus. The use of a single stock of virus for a long period of testing has very favorable effects on the repeatability of the assay systems.
(§10) Virus infection of the CEM and MT-2 cells for the antiviral assay is carried out in a bulk infection process. […]

HIV-1 protease = biological target: T1, HIV-1 protease (Human immunodeficiency virus type 1 group M subtype B, UniProt P04585); assay: biochemical; format: biochemical
T1 construct: purified HIV-1 protease
Protocol: 1. Proteolytic activity of purified HIV-1 protease was routinely measured using the chromogenic assay developed by Richards et al. (J. Biol. Chem. 265: 7733 (1990)). Synthetic peptide His-Lys-Ala-Arg-Val-Leu-Phe (pNO2)-Glu-Ala-Nle-Ser-NH2 (American Peptide Company) was used as the substrate.
2. The assay was carried out in 0.5M NaCl, 50 mM MES pH 5.6, 2% DMSO (dimethylsulfoxide) at 37° C. Cleavage of the scissile bond between leucine and paranitro-phenylalanine (Phe(pNO2)) was assayed by spectrophotometric monitoring of the decrease in absorbance at 305 nm. Initial velocity was determined as the rate of decline of absorbance during the first 100 seconds of reaction.
3. […] Between 15-25 concentrations of inhibitor were added and velocity of reaction was measured at each of the concentrations, as described above.
4. Inhibition constants were calculated using the method of Jackson et al. (Adv. in Enzyme Regulation 22: 187 (1984)).

HIV-1 (CEM cells) = assay: Anti-HIV MTT assay, inhibition of HIV-induced cell killing, CEM cells; format: cell-based, HIV-1 isolates IIIB and/or RF; conditions: Human immunodeficiency virus 1, CCRF-CEM, 144 h, CEM cell line (first position), 6 days, 37° C., read-out: Viral CEM
Description: as §1, §2, §3, §4, §5, §6, §7, §8, §9, §10

[1] = MT-2 cells (second position), 6 days, 37° C., MTT
[2] = 0.5M NaCl, 50 mM MES pH 5.6, 2% DMSO, 37° C., 200 μM substrate

SMILES	activity in the antiviral assay (HIV)	IC50 (HIV-1 (MT-2 cells); [1]) [mg/L]	IC50 (HIV-1 protease; [2]) [µM]	Ki (HIV-1 protease; [2]) [µM]	IC50 (HIV-1 (CEM cells)) [mg/L]	IC50 (HIV-1 protease) [µM]	Ki (HIV-1 protease) [µM]	IC50 (HIV-1 (MT-2 cells)) [mg/L]
CCC1(N(CCO)C(=O)c2ccccc2CC[C@@H](O)Cc2ccc(C)cc2C(=O)N(CCO)C(C)(C)c2ccccc2)CCCC1 [Example 116a]	more active	–	–	–	–	–	–	–
CCC1(N(CCO)C(=O)c2ccccc2CCC(O)Cc2ccc(C)cc2C(=O)N(CC2CCCO2)C(C)(C)c2ccccc2)CCCC1 (centres unmarked) [Example 115]	–	6.34 (≈ 9.48 µM)	0.29	0.017	4.16 (≈ 6.22 µM)	–	–	–
CCC1(N(CCO)C(=O)c2ccccc2CCC(O)Cc2ccccc2C(=O)N(CCO)C23CCCCC2CCCC3)CCCC1 (centres unmarked) [Example 97]	–	> 10	0.225	0.038	1.58 (≈ 2.5 µM)	–	–	–
Cc1ccc(CC(O)CCc2ccccc2C(=O)N(CCO)C(C)(C)c2ccccc2)c(C(=O)N(CCO)C(C)(C)c2ccccc2)c1 (centres unmarked) [Example 80]	–	0.68 (≈ 1.04 µM)	0.089	0.012	0.53 (≈ 0.814 µM)	–	–	–
CC(C)(C)N(CCO)C(=O)c1ccccc1CCC(O)Cc1ccccc1C(=O)N(CCO)C(C)(C)C (centres unmarked) [Example 1]	–	23 (≈ 44.9 µM)	–	–	18.6 (≈ 36.3 µM)	1.03	0.835	–
CCC1(N(CCO)C(=O)c2ccccc2CCC(O)Cc2ccc(C)cc2C(=O)N(CCO)C(C)(C)c2ccc(OCCCN(CCO)CCO)cc2)CCCC1 (centres unmarked) [Example 113]	–	1.58 (≈ 2 µM)	0.103	0.01	1.73 (≈ 2.19 µM)	–	–	–
CC(C)(c1ccccc1)N(CCO)C(=O)c1ccccc1CCC(O)Cc1ccccc1C(=O)N(CCO)C(C)(C)c1ccccc1 (centres unmarked) [Example 65]	–	1.76 (≈ 2.76 µM)	0.082	0.031	0.89 (≈ 1.4 µM)	–	–	–
CC(C)(C)N(CCO)C(=O)c1ccccc1CCC(O)Cc1ccccc1C(=O)N(CCO)C1(C)CCCC1 (centres unmarked) [Example 5]	–	32 (≈ 59.4 µM)	0.95	0.84	17.4 (≈ 32.3 µM)	–	–	–
CCC1(N(CCO)C(=O)c2ccccc2CCC(O)Cc2ccc(C)cc2C(=O)N(CCO)C2(c3ccccc3)CCCC2)CCCC1 (centres unmarked) [Example 94]	–	1.47 (≈ 2.24 µM)	0.141	0.00055	0.52 (≈ 0.794 µM)	–	–	–
CCC1(N(CCO)C(=O)c2ccccc2CCC(O)Cc2ccccc2C(=O)N(CCO)C2(c3ccccc3)CCCC2)CCCC1 (centres unmarked) [Example 93]	–	1.67 (≈ 2.61 µM)	0.104	0.0023	1.35 (≈ 2.11 µM)	–	–	–
CC(C)(C)N(CCO)C(=O)c1ccccc1CCC(O)Cc1ccccc1C(=O)N(CCO)C(C)(C)c1ccccc1 (centres unmarked) [Example 91]	–	5.28 (≈ 9.19 µM)	0.274	0.172	1.95 (≈ 3.39 µM)	–	–	–
CCC1(N(CCO)C(=O)c2ccccc2CCC(O)Cc2ccc(C)cc2C(=O)N(CC2COC(C)(C)OC2)C(C)(C)c2ccccc2)CCCC1 (centres unmarked) [Example 102]	–	0.47 (≈ 0.659 µM)	0.133	0.0023	0.42 (≈ 0.589 µM)	–	–	–
CCSc1ccc(CC(O)CCc2ccccc2C(=O)N(CCO)C2(CC)CCCC2)c(C(=O)N(CCO)C(C)(C)c2ccccc2)c1 (centres unmarked) [Example 99]	–	5.75 (≈ 8.52 µM)	0.196	0.015	1.62 (≈ 2.4 µM)	–	–	–
CCC1(N(CCO)C(=O)c2ccccc2CCC(O)Cc2ccc(C)cc2C(=O)N(CCO)C(C)(C)c2ccc(OCCN3CCOCC3)cc2)CCCC1 (centres unmarked) [Example 108]	–	0.56 (≈ 0.739 µM)	0.108	0.0098	0.64 (≈ 0.844 µM)	–	–	–
CC(C)(C)N(CCO)C(=O)c1ccccc1CCC(O)Cc1ccccc1C(=O)N(Cc1ncc[nH]1)C(C)(C)c1ccccc1 (centres unmarked) [Example 72]	–	17.9 (≈ 29.3 µM)	0.326	0.1	5.54 (≈ 9.07 µM)	–	–	–
CCC1(N(CCO)C(=O)c2ccccc2CCC(O)Cc2ccc(C)cc2C(=O)N(CCO)C(CC)(CC)c2ccccc2)CCCC1 (centres unmarked) [Example 101]	–	1.67 (≈ 2.54 µM)	0.102	0.004	4.16 (≈ 6.33 µM)	–	–	–
CCC1(N(CCO)C(=O)c2ccccc2CCC(O)Cc2ccccc2C(=O)N(CCO)C(C)(C)c2ccccc2)CCCC1 (centres unmarked) [Example 82]	–	0.64 (≈ 1.04 µM)	0.104	0.017	0.75 (≈ 1.22 µM)	–	–	–
Cc1ccc(CCC(O)Cc2ccccc2C(=O)N(CCOCc2ccccc2)C(C)(C)c2ccccc2)c(C(=O)N(CCO)C(C)(C)C)c1 (centres unmarked) [Example 84]	–	> 100	0.351	0.315	> 100	–	–	–
CCCC(CC)(CC)N(CCO)C(=O)c1cc(C)ccc1CC(O)CCc1ccccc1C(=O)N(CCO)C1(CC)CCCC1 (centres unmarked) [Example 109]	–	–	0.059	0.0136	0.79 (≈ 1.27 µM)	–	–	0.59 (≈ 0.947 µM)
CCC1(N(CCO)C(=O)c2ccccc2CCC(O)Cc2ccc(Cl)cc2C(=O)N(CCO)C(C)(C)c2ccccc2)CCCC1 (centres unmarked) [Example 105]	–	0.49 (≈ 0.755 µM)	0.086	0.001	0.47 (≈ 0.724 µM)	–	–	–
CCC1(N(CC2COC(C)(C)OC2)C(=O)c2ccccc2CCC(O)Cc2ccc(C)cc2C(=O)N(CC2COC(C)(C)OC2)C(C)(C)c2ccccc2)CCCC1 (centres unmarked) [Example 106]	–	1.7 (≈ 2.13 µM)	0.067	0.0039	3.91 (≈ 4.91 µM)	–	–	–
CCC1(N(CCO)C(=O)c2ccccc2CC[C@H](O)Cc2ccc(C)cc2C(=O)N(CCO)C(C)(C)c2ccccc2)CCCC1 [Example 116b]	less active	–	–	–	–	–	–	–
CCC1(N(CCO)C(=O)c2ccccc2CCC(O)Cc2ccccc2C(=O)N(CCO)C(CC)(CC)c2ccccc2)CCCC1 (centres unmarked) [Example 95]	–	1.46 (≈ 2.27 µM)	0.09	0.0015	0.6 (≈ 0.933 µM)	–	–	–
CCC1(N(CCO)C(=O)c2ccccc2CCC(O)Cc2ccc(C)cc2C(=O)N(CCO)C(C)(C)c2ccc(OCc3ccc[n+]([O-])c3)cc2)CCCC1 (centres unmarked) [Example 111]	–	1.81 (≈ 2.41 µM)	0.052	0.008	1.03 (≈ 1.37 µM)	–	–	–
Cc1ccc(CCC(O)Cc2ccccc2C(=O)N(CCO)C(C)(C)c2ccccc2)c(C(=O)N(CCO)C(C)(C)C)c1 (centres unmarked) [Example 62]	–	4.98 (≈ 8.46 µM)	0.169	0.152	2.86 (≈ 4.86 µM)	–	–	–
CCC1(N(CCO)C(=O)c2ccccc2CCC(O)Cc2ccc(C)cc2C(=O)N(CCO)C(C)(C)c2ccc(OCc3cccnc3)cc2)CCCC1 (centres unmarked) [Example 98]	–	1.94 (≈ 2.64 µM)	0.103	0.002	0.48 (≈ 0.652 µM)	–	–	–
